In patent US20260317367A1, “SALTS INCLUDING CRYSTALLINE SALTS OF 25-HYDROXY-CHOLEST-5-EN-3-SULFATE AND METHODS FOR PREPARING SAME” (Durect Corporation, priority 2022, published 2026):
Where a name gives a salt, the structure may show the parent alone. Read-outs that look alike come from different tables or passages of the source. One block for each molecule: values may come before it.

Columns and labels:
Type in all cases: physicochemical
[1] = Hausner ratio and compressibility index of 25HC3S salts; conditions: for Compressibility Index: Table C3 heads this index in %
Method: Although there are some variations in the method of determining the compressibility index and Hausner ratio, the basic procedure is to measure the unsettled apparent volume, VO, and the final tapped volume, Vf, of the powder after tapping the material until no further volume changes occur. The compressibility index and the Hausner ratio are calculated as follows: […]
Both the Hausner ratio and the compressibility index are empirically established. The Hausner ratio and compressibility index are not absolute properties of a material; its value can vary depending on the methodology used to determine them. In this case, since the 14 salts of 25HC3S were measured the same way, the relative values should be accurate.
Table C3, from USP <1174> Powder Flow, describes the flow character of the powder based on the compressibility index and Hausner ratio values.
Powder was carefully poured into a 5 mL glass graduated cylinder (to contain) until it was close to or at 5.0 mL. This initial volume was recorded as Vo. The graduated cylinder was tapped on a hard surface for 200 times and the volume was recorded. The cylinder was tapped 100 times more, and the final volume Vf was recorded. Typically, the volume after 200 taps was identical to after 300 taps, or within 0.1 mL.

[2] = Differential scanning calorimetry (DSC), thermal decomposition / endothermic transition; conditions: for Decomposition temperature (DSC): 10° C./min; for First significant endothermic transition (DSC): indicative of thermal degradation or solid-state transformation
Method: (§1) Differential scanning calorimetry (DSC) is a thermoanalytical technique where the difference in the amount of heat required to increase the temperature of a sample and reference is measured as a function of temperature. Using this technique, phase transitions of a sample can be measured such as melting point. Decomposition can also be observed by DSC as can dehydration events. In the context of DSC measurements, there is also variability and the term “about” means ±1° C., and such variability is to be understood whether a DSC measurement is prefaced by “about” or not unless specified otherwise. Exemplary methods for collecting DSC data are set forth in Example 21. Thermogravimetric analysis, sometimes referred to as, thermal gravimetric analysis (TGA) is a thermal method of thermal analysis where the mass of a sample is measured as a function of time as the sample temperature changes. For example, when samples disclosed herein are heated and a loss in mass is measured prior to decomposition, this is likely indicative of the loss of water from the sample and may indicate that the sample being heated is a hydrate. Exemplary methods for collecting TGA are set forth in Example 23.
DSC was performed using a Mettler-Toledo DSC3+ differential scanning calorimeter. A tau lag adjustment is performed with indium, tin, and zinc. The temperature and enthalpy are adjusted with octane, phenyl salicylate, indium, tin and zinc. The adjustment is then verified with octane, phenyl salicylate, indium, tin, and zinc. The sample was placed into a hermetically sealed aluminum DSC pan, and the weight was accurately recorded. The pan was then inserted into the DSC cell. A weighed aluminum pan configured as the sample pan was placed on the reference side of the cell. The pan lid was pierced prior to sample analysis. Samples were analyzed from 30° C. to 350° C. or 30° C. to 250° C., both at 10° C./min.

[3] = Thermogravimetric analysis (TGA), weight loss
Method: as §1
TG analysis was performed using a Mettler-Toledo TGA/DSC3 analyzer. Temperature and enthalpy adjustments were performed using indium, tin, and zinc, and then verified with indium. The balance was verified with calcium oxalate. The sample was placed in an open aluminum pan. The pan was hermetically sealed, the lid pierced, then inserted into the TG furnace. A weighed aluminum pan configured as the sample pan was placed on the reference platform. The furnace was heated under nitrogen. Each sample was heated from ambient temperature to 350° C. at 10° C./min. Although thermograms are plotted by reference temperature (x-axis), results are reported according to sample temperatures.

[4] = X-ray powder diffraction before and after DVS (form stability); conditions: 5% to 95% RH
Method: XRPD patterns were collected with a PANalytical X'Pert PRO MPD or a PANalytical Empyrean diffractometer using an incident beam of Cu radiation produced using an Optix long, fine-focus source. An elliptically graded multilayer mirror was used to focus Cu Kα X-rays through the specimen and onto the detector. Prior to the analysis, a silicon specimen (NIST SRM 640f) was analyzed to verify the observed position of the Si 111 peak is consistent with the NIST-certified position. A specimen of the sample was sandwiched between 3-μm-thick films and analyzed in transmission geometry. A beam-stop, short antiscatter extension, and antiscatter knife edge were used to minimize the background generated by air. Soller slits for the incident and diffracted beams were used to minimize broadening and asymmetry from axial divergence. Diffraction patterns were collected using a scanning position-sensitive detector (X'Celerator) located 240 mm from the specimen and Data Collector software v. 5.5. All images have the instrument labeled as X'Pert PRO MPD regardless of the instrument used.
XRPD patterns were collected with a PANalytical X'Pert PRO MPD diffractometer using an incident beam of Cu Kα radiation produced using a long, fine-focus source and a nickel filter. The diffractometer was configured using the symmetric Bragg-Brentano geometry. Prior to the analysis, a silicon specimen (NIST SRM 640f) was analyzed to verify the observed position of the Si 111 peak is consistent with the NIST-certified position. A specimen of the sample was prepared as a thin, circular layer centered on a silicon zero-background substrate. Antiscatter slits (SS) were used to minimize the background generated by air. Soller slits for the incident and diffracted beams were used to minimize broadening from axial divergence. Diffraction patterns were collected using a scanning position-sensitive detector (X'Celerator) located 240 mm from the sample and Data Collector software v. 5.5
(§2) Dynamic vapor sorption data was collected on a Surface Measurement System DVS Intrinsic instrument. The samples were not dried prior to analysis. Sorption and desorption data were collected over a range from 5% to 95% RH in 10% RH increments under a nitrogen purge. The equilibrium criteria used for the analyses were 0.001 dm/dt weight change in 5 minutes with a minimum step time of 30 minutes and maximum equilibration time of 180 minutes with a 3 minute data logging interval. Data were not corrected for the initial moisture content of the sample.

[5] = Dynamic vapor sorption (DVS), hygroscopicity; conditions: DVS; for Water uptake (weight gain) up to about 95% relative humidity: 5% to about 95% RH; for Reversibility of water uptake (in words): RH reduced from 95% to 5%
Text: Dynamic vapor sorption (DVS) measures the uptake of a vapor (typically water) by a sample when exposed to a changing relative humidity. The loss of water can also be measured as relative humidity is decreased. Hygroscopic materials tend to absorb water more readily than non-hygroscopic. In some cases, hydrates absorb water to create higher-order hydrates (e.g., a monohydrate converting to a dihydrate when exposed to increasingly humid conditions). In some salts of the disclosure, moisture is retained upon exposure in a DVS experiment and little or no weight loss is observed upon heating from room temperature. In such experiments, the hygroscopic nature of the salt under study may indicate the formation of a hydrate from an anhydrate. […] Exemplary methods for collecting DVS data are set forth in Example 26.
as §2

[6] = listed as crystalline 25HC3S calcium
[7] = listed as crystalline 25HC3S hydroxyethylammonium
[8] = listed as 25HC3S hydroxyethylammonium
[9] = listed as 25HC3S hydroxyethylpyrrolidinium
[10] = listed as crystalline 25HC3S hydroxyethylpyrrolidinium
[11] = listed as crystalline 25HC3S benzathine
[12] = listed as 25HC3S diethanolamine
[13] = listed as crystalline 25HC3S t-butylammonium
[14] = listed as 25HC3S t-butylammonium

SMILES: CC(CCCC(C)(C)O)C1CCC2C3CC=C4CC(OS(=O)(=O)O)CCC4(C)C3CCC12C (centres unmarked) [Salt #2]
Compressibility Index ([1]; listed as 25HC3S calcium): 36 | Hausner Ratio ([1]; listed as 25HC3S calcium): 1.56 | Decomposition temperature (DSC) [2, 6]: about 130 °C | Weight loss by TGA, about 112° C. to about 130° C. ([3]; about 112° C. to about 130° C.): 3.1% | Weight loss by TGA, room temperature to about 93° C. ([3]; room temperature to about 93° C.): about 0.9% | Change of x-ray powder diffraction pattern after DVS (in words) [4, 6]: not an appreciable change

SMILES: CC(CCCC(C)(C)O)C1CCC2C3CC=C4CC(OS(=O)(=O)O)CCC4(C)C3CCC12C (centres unmarked) [Salt #3]
Water uptake (change in mass), 25% to 45% RH ([5]; between 25% and 45% relative humidity): about 2.8% | Compressibility Index ([1]; listed as 25HC3S zinc): 28 | Hausner Ratio ([1]; listed as 25HC3S zinc): 1.39 | Decomposition temperature (DSC) ([2]; listed as crystalline 25HC3S zinc): about 119 °C | Weight loss by TGA, about […] C. to about 190° C. ([3]; about […] C. to about 190° C., may be decomposition): 11.5% | Weight loss by TGA, room temperature to about 130° C. ([3]; room temperature to about 130° C.): about 5.1%

SMILES: CC(CCCC(C)(C)O)C1CCC2C3CC=C4CC(OS(=O)(=O)O)CCC4(C)C3CCC12C (centres unmarked) [Salt #5]
Hygroscopicity (in words) [5, 7]: hygroscopic | Compressibility Index [1, 8]: 18 | Hausner Ratio [1, 8]: 1.22 | Weight loss by TGA, ambient to 134° C. ([3]; ambient to 134° C.): about 2.7% | Change of x-ray powder diffraction pattern after DVS (in words) [4, 7]: appearance of extra x-ray powder diffraction peaks

SMILES: CC(CCCC(C)(C)O)C1CCC2C3CC=C4CC(OS(=O)(=O)O)CCC4(C)C3CCC12C (centres unmarked) [Salt #6]
Compressibility Index [1, 9]: 35 | Hausner Ratio [1, 9]: 1.53 | Decomposition temperature (DSC) [2, 10]: about 181 °C | Weight loss by TGA up to 181° C. ([3]; up to 181° C.): about 0.1% | Change of x-ray powder diffraction pattern after DVS (in words) [4, 10]: different than before

SMILES: CC(CCCC(C)(C)O)C1CCC2C3CC=C4CC(OS(=O)(=O)O)CCC4(C)C3CCC12C (centres unmarked) [Salt #7]
Water uptake, plateau above 35% RH ([5]; stable plateau above 35% relative humidity): about 3% | Compressibility Index ([1]; listed as 25HC3S meglumine): 36 | Hausner Ratio ([1]; listed as 25HC3S meglumine): 1.56 | Loss of moisture by TGA, starting with ambient ([3]; starting with ambient): about 3.2%

The remaining lines, values ahead:

Water uptake (weight gain) up to about 95% relative humidity [5, 11]: less than 0.5% | Reversibility of water uptake (in words) [5, 11]: reversibly lose all that water | Hygroscopicity (in words) [5, 11]: low hygroscopicity | Compressibility Index ([1]; listed as 25HC3S benzathine): 29 | Hausner Ratio ([1]; listed as 25HC3S benzathine): 1.40 | First significant endothermic transition (DSC) ([2]; listed as benzathine): ~211 °C | Weight loss by TGA up to 200° C. [3, 11]: 0.4%
SMILES: CC(CCCC(C)(C)O)C1CCC2C3CC=C4CC(OS(=O)(=O)O)CCC4(C)C3CCC12C (centres unmarked) [Salt #9]

Relative humidity above which the salt is hygroscopic [5]: above 75 % relative humidity | Compressibility Index [1, 12]: 34 | Hausner Ratio [1, 12]: 1.52 | First significant endothermic transition (DSC) ([2]; listed as diethanolamine): ~181 °C | Weight loss by TGA up to 175° C. (in words) ([3]; up to 175° C.): Negligible weight loss
SMILES: CC(CCCC(C)(C)O)C1CCC2C3CC=C4CC(OS(=O)(=O)O)CCC4(C)C3CCC12C (centres unmarked) [Salt #10]

Water uptake (weight gain) up to about 95% relative humidity [5, 13]: less than 0.5% | Reversibility of water uptake (in words) [5, 13]: reversibly lose all that water | Hygroscopicity (in words) [5, 13]: low hygroscopicity | Compressibility Index [1, 14]: 33 | Hausner Ratio [1, 14]: 1.48 | First significant endothermic transition (DSC) ([2]; listed as t-butylammonium): ~201 °C | Weight loss by TGA up to 200° C. [3, 13]: 0.2%
SMILES: CC(CCCC(C)(C)O)C1CCC2C3CC=C4CC(OS(=O)(=O)O)CCC4(C)C3CCC12C (centres unmarked) [Salt #12]

Compressibility Index ([1]; listed as 25HC3S magnesium): 36 | Hausner Ratio ([1]; listed as 25HC3S magnesium): 1.56 | Decomposition temperature (DSC) ([2]; listed as crystalline 25HC3S magnesium): about 139 °C | Weight loss by TGA up to 127° C. ([3]; up to 127° C.): about 1.5%
SMILES: CC(CCCC(C)(C)O)C1CCC2C3CC=C4CC(OS(=O)(=O)O)CCC4(C)C3CCC12C (centres unmarked) [Salt #13]

Relative humidity above which the salt is hygroscopic [5]: above 75 % relative humidity | Hausner Ratio [1]: 1.32 | Compressibility Index [1]: 24 | Decomposition temperature (DSC) [2]: about 186 °C | First significant endothermic transition (DSC) [2]: ~186 °C | Weight loss by TGA, 100° C. to […] C. ([3]; 100° C. to […] C., partly decomposition): about 8.8% | Weight loss by TGA to about 100° C. ([3]; to about 100° C.): about 1.5%
SMILES: C[C@H](CCCC(C)(C)O)[C@H]1CC[C@H]2[C@@H]3CC=C4C[C@@H](OS(=O)(=O)O)CC[C@]4(C)[C@H]3CC[C@]12C [Salt #14]
